From US20080027003A1, “Peptides Useful for Treating Gnrh Associated Diseases” (CurePeptide Ltd., priority 2004, published 2008)
Like-named read-outs stand apart in the source and are kept apart here. Non-standard residues stand in square brackets, D forms with d. Residues, ends and D or L forms follow the SMILES beside them. *: point of attachment. Palmitoyl = CCCCCCCCCCCCCCCC(=O)*

Key:
[1] = system: Colo-205 adenocarcioma cell line; assay: Growth inhibitory effect by Hemacolor assay on Colo-205 (Example 7); assay type: cell-based, human
Source text: Peptides were synthesized as described in Example 6 above.
Table 10 below summarizes the concentration of the various peptides required to obtain 50% viability, or to destroy 50% of the tumor cells, as derived from the hemacolor test (FIGS. 3 and 4a-c). Of note, the higher the concentration of peptide required, the poorer the potency of the analog.

[2] = system: Colo-205; assay type: cell-based, human; conditions: 24 h
Description: (§1) Hemacolor assay—A comparative study was effected between peptides GnRH—X and NLS-GnRH-E on three adenocarcinoma cell lines: MDA-MB-231 (breast) HCT-116 and Colo-205 (colon), described in Example 5 above. Briefly, cells were plated in 96 well plates and allowed to adhere to the plates. Thereafter, various concentrations of GnRH and NLS-GnRH peptides were incubated with the adhered cells for 24 h. To quantify the extent of damage to the cells by the peptides, the Hemacolor assay was effected as described in Example 5. Viable cells which remained adhered to the 96 plastic plates were fixed and stained. Dye was extracted from the plate by addition of 0.5% SDS in PBS (100 μl) with vigorous mixing. Plates were quantified at 650 nm by spectrophotometer (ELISA reader). Cell viability of ≧95% by Trypan blue exclusion from 400 cells was a prerequisite for each experiment. Note, the color intensity is proportional to the extent of the remaining viability. Data was calculated as EC50, which is defined as the concentration (in μM) of analog that provokes a response half way between the baseline (Bottom=control) and maximum response (Top).

[3] = system: HCT-116; assay type: cell-based, human; conditions: 24 h
Description: as §1

[4] = system: MDA-MB-231; assay type: cell-based, human; conditions: 24 h
Description: as §1

[5] = system: female athymic nude mice NCr-nu; assay: Total tolerated dosage (TTD), single injection; assay type: in vivo; conditions: observed 14 days
Description: The total tolerated dosage of peptide by mice administered with a single injection was tested.
The test compounds were administered to 10 female athymic nude mice NCr-nu (Charles River Laboratories, Wilmington, Mass.) as a single injection at the following dosages and routes:
Peptide X was injected intra-peritonealy (IP) at 400, 200, and 100 mg/kg.
Peptide NLS-E was tested intra-venously (IV) at 400, 200, 100, 50 and 25 mg/kg
Different injection volumes of a stock solution at a concentration of 20 mg/ml were used to administer the desired dosages (injection volumes of 0.05, 0.1, and 0.2 ml/10 g body, respectively) The carrier was water for injection at pH 7. […] Individual body weights were measured twice a week.

[6] = system: female athymic NCr-nu nude mice; assay: Maximal tolerated dosage (MTD), twice a day for 14 consecutive days; assay type: in vivo; conditions: for mice that died: five mice per group
Description: The maximum tolerated dosage (MTD) of the test compounds was tested when administered twice a day for 14 consecutive days.
A total of 50 female athymic NCr-nu nude mice (obtained as mentioned in Example 10a) were used as follows: five groups of mice with five mice per group per compound. Peptides dissolved in water at pH 7 (the vehicle) were evaluated at four dosages (The dosages selected were derived from the results of the TTD experiment, Example 10a):
Peptide X was injected IP at 20 mg/kg/injection for 7 days, followed by IP injections at […] 10, 5, 2.5 mg/kg/injection for 7 days followed by 30, 15 and 7.5 mg/kg, for 14 days respectively.
Peptide NLS-E was tested at 10, 5, 2.5, and 1.25 mg/kg/injection followed by injection at 30, 15, 7.5 and 3.75 mg/kg respectively. Injections were given IV except in the groups treated with 10/30 and 5/15 mg/kg/injection, where injections were switched to IP route on day 10 of treatment.
Additionally, one vehicle-treated control group of five mice per compound was included in the experiment. […] The MTD study was terminated on Day 29.
Individual body weights were measured twice a week.

[7] = read-out: Concentration required to obtain 50% viability
[8] = read-out: Concentration [M] × 10^−6 (derived from table 10)

Row | Compound | Activity with respect to NLS-E (%) [1] [%] | EC50 [1, 7] [M] | EC50 [1, 8] [M] | EC50 [2] [µM] | EC50 [3] [µM] | EC50 [4] [µM] | other results
1 | Palm-D-Lys-Gly-D-Phe-Pro-Ser-Tyr-D-Lys-Leu-Arg-Pro-Gly-NH2 (Palmitoyl-[dK]G[dF]PSY[dK]LRPG-NH2; SMILES CCCCCCCCCCCCCCCC(=O)N[C@H](CCCCN)C(=O)NCC(=O)N[C@H](Cc1ccccc1)C(=O)N1CCC[C@H]1C(=O)N[C@@H](CO)C(=O)N[C@@H](Cc1ccc(O)cc1)C(=O)N[C@H](CCCCN)C(=O)N[C@@H](CC(C)C)C(=O)N[C@@H](CCCNC(=N)N)C(=O)N1CCC[C@H]1C(=O)NCC(N)=O) [SEQ ID NO: 10] | 12.5 | 5e-05 | – | – | – | – | –
2 | Palm-D-Lys-Pro-Gly-D-Phe-Pro-Ser-Tyr-D-Lys-Leu-Arg-Pro-Gly-NH2 (Palmitoyl-[dK]PG[dF]PSY[dK]LRPG-NH2; SMILES CCCCCCCCCCCCCCCC(=O)N[C@H](CCCCN)C(=O)N1CCC[C@H]1C(=O)NCC(=O)N[C@H](Cc1ccccc1)C(=O)N1CCC[C@H]1C(=O)N[C@@H](CO)C(=O)N[C@@H](Cc1ccc(O)cc1)C(=O)N[C@H](CCCCN)C(=O)N[C@@H](CC(C)C)C(=O)N[C@@H](CCCNC(=N)N)C(=O)N1CCC[C@H]1C(=O)NCC(N)=O) [SEQ ID NO: 9] | 16 | 3.5e-05 | 3.5e-05 | – | – | – | Activity with respect to NLS peptide (%) ([1]; relative to the corresponding NLS-conjugated peptide): 16%
3 | Palm-Pro-Gly-D-Phe-Pro-Ser-Tyr-D-Lys(H-Pro-Lys-Lys-Lys-Arg-Lys-Val)-Leu-Arg-Pro-Gly-NH2 [SEQ ID NO: 32] | 50 | 1e-05 | 1e-05 | – | – | – | –
4 | CCCCCCCCCCCCCCCC(=O)N1CCC[C@H]1C(=O)NCC(=O)N[C@H](Cc1ccccc1)C(=O)N1CCC[C@H]1C(=O)N[C@@H](CO)C(=O)N[C@@H](Cc1ccc(O)cc1)C(=O)N[C@H](CCCCN)C(=O)N[C@@H](CC(C)C)C(=O)N[C@@H](CCCNC(=N)N)C(=O)N1CCC[C@H]1C(=O)NCC(N)=O [SEQ ID NO: 2, Palm-Pro-Gly-D-Phe-Pro-Ser-Tyr-D-Lys-Leu-Arg-Pro-Gly-NH2] (Palmitoyl-PG[dF]PSY[dK]LRPG-NH2) | – | – | – | 200 | 750 | 400 | lethality after single injection ([5]; IP, 100 mg/kg): stayed alive; lethality after single injection ([5]; IP, 200 mg/kg): lethal; lethality after single injection ([5]; IP, 400 mg/kg): lethal; mice that died ([6]; 10/30 mg/kg): one; mice that died ([6]; IP, 20/60 mg/kg): Three
5 | CCCCCCCCCCCCCCCC(=O)N[C@H](CCCCNC(=O)[C@@H](NC(=O)[C@H](CCCCN)NC(=O)[C@H](CCCNC(=N)N)NC(=O)[C@H](CCCCN)NC(=O)[C@H](CCCCN)NC(=O)[C@H](CCCCN)NC(=O)[C@@H]1CCCN1)C(C)C)C(=O)N1CCC[C@H]1C(=O)NCC(=O)N[C@H](Cc1ccccc1)C(=O)N1CCC[C@H]1C(=O)N[C@@H](CO)C(=O)N[C@@H](Cc1ccc(O)cc1)C(=O)N[C@H](CCCCN)C(=O)N[C@@H](CC(C)C)C(=O)N[C@@H](CCCNC(=N)N)C(=O)N1CCC[C@H]1C(=O)NCC(N)=O [SEQ ID NO: 33, Palm-D-Lys(H-Pro-Lys-Lys-Lys-Arg-Lys-Val)-Pro-Gly-D-Phe-Pro-Ser-Tyr-D-Lys-Leu-Arg-Pro-Gly-NH2] | – | – | – | 68 | 320 | 350 | lethality after single injection ([5]; IV, 25 mg/kg): stayed alive; lethality after single injection ([5]; IV, 50 mg/kg): stayed alive; lethality after single injection ([5]; IV, 100 mg/kg): lethal; lethality after single injection ([5]; IV, 200 mg/kg): lethal; lethality after single injection ([5]; IV, 400 mg/kg): lethal; mice that died ([6]; IV injected, all dosages): None; comparative toxicity ([6]; repeated dosing in mice): less toxic than peptide X
6 | Palm-Pro-Gly-D-Phe-Ala-Ser-Tyr-D-Lys-Leu-Arg-Pro-Gly-NH2 (Palmitoyl-PG[dF]ASY[dK]LRPG-NH2; SMILES CCCCCCCCCCCCCCCC(=O)N1CCC[C@H]1C(=O)NCC(=O)N[C@H](Cc1ccccc1)C(=O)N[C@@H](C)C(=O)N[C@@H](CO)C(=O)N[C@@H](Cc1ccc(O)cc1)C(=O)N[C@H](CCCCN)C(=O)N[C@@H](CC(C)C)C(=O)N[C@@H](CCCNC(=N)N)C(=O)N1CCC[C@H]1C(=O)NCC(N)=O) [SEQ ID NO: 16] | 16 | 3.5e-05 | – | – | – | – | –
